Measurements: patent US9227921B2, “Salts and polymorphs of a tetracycline compound” (Paratek Pharmaceuticals, Inc., priority 2008, dated 2016)

How the values were obtained:
[1] = Stability studies on free base Compound 1 and amorphous diHCl salt; format: physicochemical
Experimental: Stability studies were performed on the free base Compound 1 and an amorphous diHCl salt of Compound 1. This salt was formed by dissolving the compound in aqueous solution, adjusting the pH of the solution to approximately 4.2, followed by lyophilization. The free base degraded in less than one month at 40° C., and approximately three months at 4° C. In contrast, the diHCl salt of Compound 1 was stable for 6 months at 40° C., and for two years at room temperature (25° C.).

[2] = Solid phase stability of amorphous Compound 1; format: physicochemical; conditions: temperatures higher than 0° C. and when exposed to air
Description: Tetracycline-type antibiotic compounds have long been known to have limited stability in the solid phase freebase form. One such non-crystalline tetracycline analog compound, (4S,4AS,5AR,12AS)-4-7-Bis(dimethylamino)-9-{[(2,2-dimethylpropyl)amino]methyl}-3,10,12,12A-tetrahydroxy-1,1′-dioxo-1,4,4A,5,5A,6,11,12A-octahydrotetracene-2-carboxamide (Compound 1; MW=556.66, MF=C29H40N4O7), has limited stability in the solid phase upon exposure to air, light and/or moisture.
Specifically, Compound 1 is a yellow amorphous solid that is unstable at temperatures higher than 0° C. and when exposed to air. Compound 1 must be stored at temperatures below 0° C. with limited exposure in the solid phase to air, light and moisture. Outside of these limited exposure conditions, Compound 1 degrades to produce degradation products including air degradation products 2, 3 and 4, as well as the 4-epi-isomer 5.

Structure (SMILES): CN(C)c1cc(CNCC(C)(C)C)c(O)c2c1C[C@H]1C[C@H]3[C@H](N(C)C)C(O)=C(C(N)=O)C(=O)[C@@]3(O)C(O)=C1C2=O [Compound 1, (4S,4AS,5AR,12AS)-4-7-Bis(dimethylamino)-9{[(2,2-dimethylpropyl)amino]methyl}-3,10,12,12A-tetrahydroxy-1,1′-dioxo-1,4,4A,5,5A,6,11,12A-octahydrotetracene-2-carboxamide]
- time in which the substance degraded ([1]; 4° C.): approximately three
- time in which the substance degraded ([1]; 40° C.): less than one
- solid phase stability [2]: unstable
